Experiment [1] has as its target T1, Nitric oxide synthase, inducible (Homo sapiens, UniProt P35228). The experiment can be described thus: Binding affinity to truncated iNOS construct (1-490) by spectral assay.
The target in experiment [2] is T1, Nitric oxide synthase, inducible. Briefly: Inhibition of full length iNOS by high-throughput oxymyoglobin assay.
The target is the same in experiment [3].

SMILES strings stand for the structures.

T1 sequence (P35228 whole entry, the tested form may be a part): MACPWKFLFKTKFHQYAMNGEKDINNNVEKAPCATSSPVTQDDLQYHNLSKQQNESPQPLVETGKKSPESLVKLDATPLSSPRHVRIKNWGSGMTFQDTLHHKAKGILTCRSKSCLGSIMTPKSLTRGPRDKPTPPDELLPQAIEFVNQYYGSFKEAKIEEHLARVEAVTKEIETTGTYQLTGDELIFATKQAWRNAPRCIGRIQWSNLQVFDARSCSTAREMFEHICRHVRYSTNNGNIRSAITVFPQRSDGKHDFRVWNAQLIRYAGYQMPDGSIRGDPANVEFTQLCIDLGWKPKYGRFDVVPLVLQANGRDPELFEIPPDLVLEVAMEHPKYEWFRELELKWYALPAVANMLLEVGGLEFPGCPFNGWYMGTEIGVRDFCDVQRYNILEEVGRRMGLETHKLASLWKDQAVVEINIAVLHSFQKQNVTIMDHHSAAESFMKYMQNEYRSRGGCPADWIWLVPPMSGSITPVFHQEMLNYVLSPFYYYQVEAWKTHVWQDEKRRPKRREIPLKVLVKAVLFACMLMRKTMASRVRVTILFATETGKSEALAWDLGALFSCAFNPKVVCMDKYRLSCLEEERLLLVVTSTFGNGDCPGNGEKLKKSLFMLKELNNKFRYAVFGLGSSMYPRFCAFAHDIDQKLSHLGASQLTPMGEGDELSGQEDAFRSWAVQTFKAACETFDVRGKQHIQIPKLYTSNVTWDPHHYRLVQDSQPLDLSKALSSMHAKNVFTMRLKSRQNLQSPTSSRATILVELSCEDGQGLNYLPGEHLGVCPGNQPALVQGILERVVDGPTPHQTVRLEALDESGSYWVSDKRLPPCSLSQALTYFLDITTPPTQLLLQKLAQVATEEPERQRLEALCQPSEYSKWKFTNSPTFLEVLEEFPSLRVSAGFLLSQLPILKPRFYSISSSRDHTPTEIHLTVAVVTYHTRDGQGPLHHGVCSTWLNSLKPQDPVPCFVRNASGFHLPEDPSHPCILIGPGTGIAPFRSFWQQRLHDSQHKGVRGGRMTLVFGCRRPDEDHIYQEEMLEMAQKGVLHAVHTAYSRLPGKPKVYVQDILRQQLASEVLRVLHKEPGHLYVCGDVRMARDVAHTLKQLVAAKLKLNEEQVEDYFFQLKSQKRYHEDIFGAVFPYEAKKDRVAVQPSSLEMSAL

For the molecule `N=C(N)NCCC[C@H](N)C(=O)O` [ARGININE], in experiment [1], the Kd (as a rule, a measure of binding affinity in units of concentration) worked out at 7 µM.

`N/C(=N/CCC[C@H](N)C(=O)O)N(N)CC(F)(F)F` yielded a Kd in experiment [1] of 40.4 µM. In addition, the Ki (commonly a dissociation constant, usually derived from enzyme kinetics or from competition with a known ligand) in experiment [2] turned out to be 10.5 µM.

In turn, `CN(N)/C(N)=N\CCC[C@H](N)C(=O)O` showed a Kd in experiment [1] of 10 µM. In addition, the affinity in experiment [2], expressed as Ki, was 34.1 µM. In addition, in experiment [3], the Kinact worked out at 0.39 min⁻¹.

Molecule `CN/N=C(\N)NCCC[C@H](N)C(=O)O` showed a Kd in experiment [1] of 29 µM. Also, in experiment [2], the Ki was 16.4 µM.

Molecule `N/N=C(\N)NCCC[C@H](N)C(=O)O` yielded a Kd in experiment [1] of 1.3 µM. Also, in experiment [2], the affinity, expressed as Ki, was 2.2 µM. Also, in experiment [3], the Kinact came to 0.18 min⁻¹.

(Values after ChEMBL document CHEMBL1143863, “N(G)-aminoguanidines from primary amines and the preparation of nitric oxide synthase inhibitors” (J Med Chem, 2008).)
